Laboratory results reported in PMC8383318, “Preclinical Pharmacokinetics, Tissue Distribution, and Primary Safety Evaluation of Indo5, a Novel Selective Inhibitor of c-Met and Trks” (Frontiers in Pharmacology, 2021).

Experiments:
[1] = tested on: HCC cells; set-up: method as in Luo et al., 2019; details: ref Luo et al., 2019, cited from earlier work
[2] = set-up: species or system mice; details: mouse, in vivo, po, 60 mg/kg
[3] = tested on: TrkB; set-up: method as in Luo et al., 2019; details: ref Luo et al., 2019; read-out: half-maximal inhibitory concentration, TrkB kinase activity; cited from earlier work
[4] = tested on: TrkA; set-up: method as in Luo et al., 2019; details: ref Luo et al., 2019; read-out: half-maximal inhibitory concentration, TrkA kinase activity; cited from earlier work
[5] = Pharmacokinetic study in rat plasma (IV and oral), LC-MS/MS, non-compartmental analysis; format: in vivo, Wistar rats
Method: For intravenous (IV) treatment, Indo5 was dissolved in DMSO (solution, 1 mg/ml) and injected into the lateral tail vein of rats (1 mg/kg, n = 3). For intragastric treatment, Indo5 was dissolved in 5% CMC-Na (suspension, 20 mg/ml). The rats were orally administered with Indo5 (100 mg/kg, n = 3) using a 20-G gavage needle. All of the animals were given a standard diet 4 h after the dosing. Blood samples (approximately 400 μl) were collected from each rat and placed into heparinized tubes before the dosing, and at 5, 15, 30, 60, 120, 240, and 480 min after the dosing. Plasma (100 μl) was harvested by centrifuging blood samples at 3,600 g for 10 min at room temperature followed by immediate processing for the analyses.
Briefly, 400 μl acetonitrile was added to 100 μl rat plasma or tissue homogenate, vortexed for 30 s, and centrifuged at 10,000 g for 10 min at room temperature to precipitate proteins. Subsequently, the supernatant (40 μl) was introduced into the HPLC/MS system. Plasma or tissue concentrations of Indo5 were determined using HPLC-MS/MS validated for pharmacokinetics.
The plasma concentration–time data obtained after intravenous and intragastric administrations were subjected to non-compartmental analyses based on the statistical moment theory. Pharmacokinetic parameters were calculated using WinNorlin 5.2 (Certara; www.certara.com/). These parameters included the maximum plasma concentration (Cmax), time to reach Cmax (Tmax), elimination half-life (t1/2), area under the plasma concentration–time curve from time zero to infinity (AUC0–∞), mean residence time (MRT), and clearance (CL). The absolute oral bioavailability was calculated by dividing the AUCtot obtained from oral administration by the AUCtot obtained from IV administration, and the calculation was adjusted using the doses that had been administered via oral and IV routes.

[6] = Tissue-distribution study in rats; format: in vivo, Wistar rats
[7] = oral (p.o.) 100 mg/kg in CMC-Na suspension, n = 3

## Cc1ccccc1NS(=O)(=O)c1ccc2c(c1)C(=Cc1nc3ccccc3[nH]1)C(=O)N2 [Indo5, 3-(1H-benzimidazol-2-methylene)-5-(2-methylphenylaminosulfo)-2-indolone]
[1]; hepatic orthotopic tumors
  survival of mice with hepatic orthotopic tumors: increases the survival
[1]; xenograft-transplanted mice
  growth of HCC cells in xenograft-transplanted mice: significantly decreases the growth of HCC cells
[2]
  histological analysis of liver tissue: no pathological changes
  number and frequencies of immune cells in the liver (flow cytometry): did not affect the number or frequencies of immune cells in the liver
[3]
  IC50: 25 nM
[4]
  IC50: 28 nM
[5]; IV 1 mg/kg
  Tmax: 1 min
[5]; IV 1 mg/kg in DMSO, n = 3
  AUC0-t: 158.6 ± 27.9 ng·h/mL
  AUC0-∞: 163.4 ± 28.3 ng·h/mL
  CL: 6,121.6 ± 1,124.8 ml/h/kg
  Cmax: 1,565.3 ± 286.2 ng/ml
  MRT0-t: 10.8 ± 2.4 min
  MRT0-∞: 15.6 ± 3.6 min
  Tmax: 1 min
  t1/2: 37.8 ± 6.6 min
[5]; [7]
  AUC0-t: 251.5 ± 43.5 ng·h/mL
  AUC0-∞: 255.7 ± 44.9 ng·h/mL
  CL: 391056.4 ± 77,945.8 ml/h/kg
  Cmax: 54.7 ± 10.4 ng/mL
  MRT0-t: 172 ± 36.6 min
  MRT0-∞: 179 ± 37.8 min
  Tmax: 120 ± 28.8 min
  Vd: 706.349 ± 106.9412 L/kg
  t1/2: 75 ± 14.4 min
[6]
  crossing of blood–brain and blood–testes barriers: could not cross the blood–brain or blood–testes barriers
